Columns and labels:
rat mGluR5 receptor = molecular target: T1, rat mGluR5 receptor (Rattus norvegicus, UniProt P31424); assay: mGluR5 assay on HEK-expressing rat mGluR5 (fluorescent cell based Ca2+ mobilization assay); details: HEK-293 cells stably expressing rat mGluR5; no co-addition of glutamate; mean of at least three independent experiments in duplicate; read-out: Ca++ Flux (mean EC50)
T1 construct: expressed in transfected cells
Method: Positive functional expression of HEK-293 cells stably expressing rat mGluR5 receptor was determined by measuring intracellular Ca^2+ changes using a Fluorometric Imaging Plate Reader (FLIPR, Molecular Devices, Sunnyvale, Calif.) in response to glutamate or selective known mGluR5 agonists and antagonists. Rat mGluR5 RT-PCR products in HEK-293 cells were sequenced and found 100% identical to rat mGluR5 Genbank reference sequence (NM_017012). HEK-293 cells expressing rmGluR5 were maintained in media containing DMEM, dialyzed Fetal Bovine Serum (10%), Glutamax™ (2 mM), Penicillin (100 units/ml), Streptomycin (100 μg/ml), Geneticin (100 μg/ml) and Hygromycin-B (40 μg/ml) at 37° C./5% CO2.
After one day of incubation, cells were washed with assay buffer containing: 142 mM NaCl, 6 mM KCl, 1 mM Mg2SO4, 1 mM CaCl2, 20 mM HEPES, 1 g/L glucose, 0.125 mM sulfinpyrazone, pH 7.4. After 60 min of loading with 4 uM Fluo-4 (TefLabs, Austin, Tex.), the cells were washed three times with 50 μl of PBS Buffer and resuspended in […] of assay Buffer. The plates were then transferred to a Fluorometric Imaging Plate Reader (FLIPR, Molecular Devices, Sunnyvale, Calif.) for the assessment of intracellular calcium flux. After monitoring the baseline fluorescence for 10 seconds, increasing concentrations of representative compound (from 0.01 to 60 μM) of the present invention diluted in Assay Buffer (15 μl of 4× dilutions) was added to the cell. The final DMSO concentration in the assay was 0.3%. In each experiment, fluorescence was then monitored as a function of time for 3 minutes and the data analyzed using Microsoft Excel and GraphPad Prism. Each data point was also measured two times.
Under these experimental conditions, this HEK-rat mGluR5 cell line is able to directly detect positive allosteric modulators without the need of co-addition of glutamate or mGluR5 agonist.
The concentration-response curves of representative compounds of the present invention were generated using the Prism GraphPad software (Graph Pad Inc, San Diego, USA). The curves were fitted to a four-parameter logistic equation:
(Y=Bottom+(Top-Bottom)/(1+10̂((Log EC50−X)*Hill Slope)
allowing determination of EC50 values.
The Table 1 below represents the mean EC50 obtained from at least three independent experiments of selected molecules performed in duplicate.

T1 sequence (P31424 21-1171 isoform P31424-2 limits assumed): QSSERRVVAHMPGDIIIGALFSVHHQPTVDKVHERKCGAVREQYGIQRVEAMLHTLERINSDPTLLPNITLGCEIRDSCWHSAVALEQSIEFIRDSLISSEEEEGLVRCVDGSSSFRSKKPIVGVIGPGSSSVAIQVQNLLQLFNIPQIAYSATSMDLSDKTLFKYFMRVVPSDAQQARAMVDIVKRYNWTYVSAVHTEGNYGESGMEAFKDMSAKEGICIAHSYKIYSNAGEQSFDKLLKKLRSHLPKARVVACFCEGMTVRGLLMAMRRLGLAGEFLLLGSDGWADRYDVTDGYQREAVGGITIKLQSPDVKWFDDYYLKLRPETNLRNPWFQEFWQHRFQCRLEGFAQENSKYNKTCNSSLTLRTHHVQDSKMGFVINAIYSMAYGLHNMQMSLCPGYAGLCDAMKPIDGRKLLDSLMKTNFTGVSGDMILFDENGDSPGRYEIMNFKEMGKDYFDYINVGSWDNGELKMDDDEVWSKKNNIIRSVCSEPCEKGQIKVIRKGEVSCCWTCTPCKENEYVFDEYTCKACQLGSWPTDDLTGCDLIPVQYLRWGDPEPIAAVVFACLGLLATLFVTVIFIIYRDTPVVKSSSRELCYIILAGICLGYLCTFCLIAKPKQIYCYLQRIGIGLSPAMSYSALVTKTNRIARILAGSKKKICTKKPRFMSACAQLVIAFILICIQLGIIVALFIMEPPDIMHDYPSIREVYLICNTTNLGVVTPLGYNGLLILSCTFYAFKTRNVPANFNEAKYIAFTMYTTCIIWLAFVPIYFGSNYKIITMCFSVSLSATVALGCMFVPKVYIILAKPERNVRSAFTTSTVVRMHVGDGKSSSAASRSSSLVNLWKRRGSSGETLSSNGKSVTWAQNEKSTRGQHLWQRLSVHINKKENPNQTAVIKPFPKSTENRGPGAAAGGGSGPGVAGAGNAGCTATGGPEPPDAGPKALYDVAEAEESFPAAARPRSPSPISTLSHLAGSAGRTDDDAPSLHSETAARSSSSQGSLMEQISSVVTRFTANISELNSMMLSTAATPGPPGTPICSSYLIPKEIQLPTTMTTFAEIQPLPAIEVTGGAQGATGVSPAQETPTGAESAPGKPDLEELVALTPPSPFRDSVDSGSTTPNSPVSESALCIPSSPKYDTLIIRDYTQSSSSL

| Compound | EC50 (rat mGluR5 receptor) [nM] | melting point [°C] |
| --- | --- | --- |
| Cc1oncc1C(=O)N1CCC[C@H](c2noc(-c3ccc(F)cc3)n2)C1 [Example 39, {(S)-3-[5-(4-Fluoro-phenyl)-[1,2,4]oxadiazol-3-yl]-piperidin-1-yl}-(5-methyl-isoxazol-4-yl)-methanone] | < 1000 | 65 |
| O=C(c1ccncc1F)N1CCC[C@H](c2noc(-c3ccc(F)cc3)n2)C1 [Example 41, {(S)-3-[5-(4-Fluoro-phenyl)-[1,2,4]oxadiazol-3-yl]-piperidin-1-yl}-(3-fluoro-pyridin-4-yl)-methanone] | < 1000 |  |
| O=C(c1ccc(F)nc1)N1CCCC(c2noc(-c3ccncc3)n2)C1 (stereo not shown) [Example 21, (6-Fluoro-pyridin-3-yl)-[3-(5-pyridin-4-yl-[1,2,4]oxadiazol-3-yl)-piperidin-1-yl]-methanone] | 1000 to 10000 | 132 to 134 |
| O=C(c1ccc(F)cn1)N1CCC[C@H](c2noc(-c3ccc(F)cc3)n2)C1 [Example 42, {(S)-3-[5-(4-Fluoro-phenyl)-[1,2,4]oxadiazol-3-yl]-piperidin-1-yl}-(5-fluoro-pyridin-2-yl)-methanone] | 1000 to 10000 | 93 to 95 |
| O=C(c1c(F)cccc1F)N1CCC[C@H](c2noc(-c3ccccn3)n2)C1 [Example 53, (2,6-Difluoro-phenyl)-[(S)-3-(5-pyridin-2-yl-[1,2,4]oxadiazol-3-yl)-piperidin-1-yl]-methanone] | 1000 to 10000 |  |
| Cn1cnc(-c2nc([C@H]3CCCN(C(=O)c4ccc(F)cc4)C3)no2)c1 [Example 48, (4-Fluoro-phenyl)-{(S)-3-[5-(1-methyl-1H-imidazol-4-yl)-[1,2,4]oxadiazol-3-yl]-piperidin-1-yl}-methanone] | > 10000 |  |
| O=C(c1ccc(F)c(F)c1)N1CCCC(c2noc(-c3ccccc3)n2)C1 (stereo not shown) [Example 32, (3,4-Difluoro-phenyl)-[3-(5-phenyl-[1,2,4]oxadiazol-3-yl)-piperidin-1-yl]-methanone] | < 1000 | 116 to 118 |
| Cc1oncc1C(=O)N1CCCC(c2noc(-c3ccc(F)cc3F)n2)C1 (stereo not shown) [Example 24, {3-[5-(2,4-Difluoro-phenyl)-[1,2,4]oxadiazol-3-yl]-piperidin-1-yl}-(5-methyl-isoxazol-4-yl)-methanone] | 1000 to 10000 | 79 |
| O=C(c1ccc(F)cc1)N1CCCC(c2noc(-c3ccc(F)cc3F)n2)C1 (stereo not shown) [Example 13, {3-[5-(2,4-Difluoro-phenyl)-[1,2,4]oxadiazol-3-yl]-piperidin-1-yl}-(4-fluoro-phenyl)-methanone] | < 1000 | 88 |
| Cc1oncc1C(=O)N1CCCC(c2noc(-c3ccc(F)cc3)n2)C1 (stereo not shown) [Example 28, {3-[5-(4-Fluoro-phenyl)-[1,2,4]oxadiazol-3-yl]-piperidin-1-yl}-(5-methyl-isoxazol-4-yl)-methanone] | < 1000 | 105 to 107 |
| O=C(c1ccc(F)c(F)c1)N1CCCC(c2noc(-c3ccccc3F)n2)C1 (stereo not shown) [Example 3, (3,4-Difluoro-phenyl)-{3-[5-(2-fluoro-phenyl)-[1,2,4]oxadiazol-3-yl]-piperidin-1-yl}-methanone] | < 1000 | 80 to 83 |
| Cc1oncc1C(=O)N1CCCC(c2noc(-c3ccncc3)n2)C1 (stereo not shown) [Example 20, (5-Methyl-isoxazol-4-yl)-[3-(5-pyridin-4-yl-[1,2,4]oxadiazol-3-yl)-piperidin-1-yl]-methanone] | > 10000 |  |
| O=C(c1ccnc(F)c1)N1CCC[C@H](c2noc(-c3ccc(F)cc3)n2)C1 [Example 40, {(S)-3-[5-(4-Fluoro-phenyl)-[1,2,4]oxadiazol-3-yl]-piperidin-1-yl}-(2-fluoro-pyridin-4-yl)-methanone] | < 1000 | 117 to 119 |
| O=C(c1cc(F)ccc1F)N1CCC[C@H](c2noc(-c3ccccn3)n2)C1 [Example 54, (2,5-Difluoro-phenyl)-[(S)-3-(5-pyridin-2-yl-[1,2,4]oxadiazol-3-yl)-piperidin-1-yl]-methanone] | < 1000 |  |
| O=C(c1ccc(F)cc1F)N1CCCC(c2noc(-c3ccccc3F)n2)C1 (stereo not shown) [Example 4, (2,4-Difluoro-phenyl)-{3-[5-(2-fluoro-phenyl)-[1,2,4]oxadiazol-3-yl]-piperidin-1-yl}-methanone] | < 1000 |  |
| O=C(c1cccc(F)c1F)N1CCC[C@H](c2noc(-c3ccccn3)n2)C1 [Example 55, (2,3-Difluoro-phenyl)-[(S)-3-(5-pyridin-2-yl-[1,2,4]oxadiazol-3-yl)-piperidin-1-yl]-methanone] | 1000 to 10000 |  |

| Compound | EC50 (rat mGluR5 receptor) [nM] | melting point [°C] |
| --- | --- | --- |
| CNc1cc(F)ccc1C(=O)N1CCCC(c2noc(-c3ccccc3F)n2)C1 (stereo not shown) [Example 5, (4-Fluoro-2-methylamino-phenyl)-{3-[5-(2-fluoro-phenyl)-[1,2,4]oxadiazol-3-yl]-piperidin-1-yl}-methanone] | 1000 to 10000 |  |
| O=C(c1ccc(F)c(F)c1)N1CCC[C@H](c2noc(-c3ccccn3)n2)C1 [Example 47, (S)-(3,4-Difluorophenyl)-{3-[5-(pyridin-2-yl)-[1,2,4]oxadiazol-3-yl]-piperidin-1-yl}-methanone] | < 1000 |  |
| O=C(c1ccc(F)cc1)N1CCCC(c2noc(C3CCCC3)n2)C1 (stereo not shown) [Example 35, (4-Fluoro-phenyl)-[3-(5-cyclopentyl-[1,2,4]oxadiazol-3-yl)-piperidin-1-yl]-methanone] | 1000 to 10000 |  |
| Cc1cc(F)ccc1C(=O)N1CCCC(c2noc(-c3ccncc3)n2)C1 (stereo not shown) [Example 22, (4-Fluoro-2-methyl-phenyl)-[3-(5-pyridin-4-yl-[1,2,4]oxadiazol-3-yl)-piperidin-1-yl]-methanone] | 1000 to 10000 |  |
| O=C(c1ccc(F)c(F)c1)N1CCC[C@H](c2noc(-c3ccc(F)cn3)n2)C1 [Example 45, (S)-(3,4-difluorophenyl)-{3-[5-(5-fluoropyridin-2-yl)-[1,2,4]oxadiazol-3-yl]-piperidin-1-yl}-methanone] | < 1000 |  |
| O=C(c1ccc(F)cc1)N1CCC[C@H](c2noc(-c3ccncc3F)n2)C1 [Example 49, (4-Fluoro-phenyl)-{(S)-3-[5-(3-fluoro-pyridin-4-yl)-[1,2,4]oxadiazol-3-yl]-piperidin-1-yl}-methanone] | 1000 to 10000 |  |
| O=C(c1ccc(F)cc1)N1CCC[C@H](c2noc(-c3ccccn3)n2)C1 [Example 46, (S)-(4-fluorophenyl)-{3-[5-(pyridin-2-yl)-[1,2,4]oxadiazol-3-yl]-piperidin-1-yl}-methanone] | 1000 to 10000 |  |
| O=C(c1cncc(F)c1)N1CCC[C@H](c2noc(-c3ccc(F)cc3)n2)C1 [Example 43, {(S)-3-[5-(4-Fluoro-phenyl)-[1,2,4]oxadiazol-3-yl]-piperidin-1-yl}-(5-fluoro-pyridin-3-yl)-methanone] | 1000 to 10000 |  |
| O=C(c1c(F)cc(F)cc1F)N1CCC[C@H](c2noc(-c3ccccn3)n2)C1 [Example 51, [(S)-3-(5-Pyridin-2-yl-[1,2,4]oxadiazol-3-yl)-piperidin-1-yl]-(2,4,6-trifluoro-phenyl)-methanone] | < 1000 |  |
| Cc1oncc1C(=O)N1CCCC(c2noc(-c3ccccc3F)n2)C1 (stereo not shown) [Example 7, {3-[5-(2-Fluoro-phenyl)-[1,2,4]oxadiazol-3-yl]-piperidin-1-yl}-(5-methyl-isoxazol-4-yl)-methanone] | < 1000 |  |
| O=C(c1ccc(F)c(F)c1)N1CCC[C@H](c2noc(-c3ccncc3F)n2)C1 [Example 50, (3,4-Difluoro-phenyl)-{(S)-3-[5-(3-fluoro-pyridin-4-yl)-[1,2,4]oxadiazol-3-yl]-piperidin-1-yl}-methanone] | 1000 to 10000 |  |
| O=C(c1ccc(F)cc1)N1CCCC(c2noc(-c3ccccc3)n2)C1 (stereo not shown) [Example 26, (4-Fluoro-phenyl)-[3-(5-phenyl-[1,2,4]oxadiazol-3-yl)-piperidin-1-yl]-methanone] | < 1000 |  |
| O=C(c1ccc(F)c(F)c1F)N1CCC[C@H](c2noc(-c3ccccn3)n2)C1 [Example 52, [(S)-3-(5-Pyridin-2-yl-[1,2,4]oxadiazol-3-yl)-piperidin-1-yl]-(2,3,4-trifluoro-phenyl)-methanone] | < 1000 |  |
| Cc1cc(F)ccc1C(=O)N1CCCC(c2noc(-c3ccccc3F)n2)C1 (stereo not shown) [Example 23, (4-Fluoro-2-methyl-phenyl)-{3-[5-(2-fluoro-phenyl)-[1,2,4]oxadiazol-3-yl]-piperidin-1-yl}-methanone] | 1000 to 10000 |  |
| Cc1cc(F)ccc1C(=O)N1CCCC(c2noc(-c3ccccc3)n2)C1 (stereo not shown) [Example 34, (4-Fluoro-2-methyl-phenyl)-[3-(5-phenyl-[1,2,4]oxadiazol-3-yl)-piperidin-1-yl]-methanone] | 1000 to 10000 |  |

Source: patent US20090215822A1, “Substituted Oxadiazole Derivatives as Positive Allosteric Modulators of Metabotropic Glutamate Receptors” (NIKEM RESEARCH SRL, priority 2005, published 2009)
